# Molecular target: T1, EGFR WT (Homo sapiens, UniProt P00533)
# T1 construct: purchased Thermo Fisher, Carlsbad, CA ERBB1 PR7295B
# Experiment: Enzymatic assay EGFR WT (method c)
# Format: biochemical
# Details: [EGFR WT]=2 nM, [ATP]=1 mM, [Peptide 22]=1 μM
# In short: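 Microfluidic mobility-shift kinase assay with Peptide 22 (1 μM) in HEPES pH 7.5, MnCl2, MgCl2, Tween 20, TCEP. HER2 WT 12.5 nM and HER2 YVMA 5 nM each used 25 μM ATP; EGFR WT 2 nM used 1 mM ATP. IC50 came from initial-velocity (0–3600 s) percent inhibition, fitted to a variable-slope model.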
# T1 sequence (P00533 25-1210): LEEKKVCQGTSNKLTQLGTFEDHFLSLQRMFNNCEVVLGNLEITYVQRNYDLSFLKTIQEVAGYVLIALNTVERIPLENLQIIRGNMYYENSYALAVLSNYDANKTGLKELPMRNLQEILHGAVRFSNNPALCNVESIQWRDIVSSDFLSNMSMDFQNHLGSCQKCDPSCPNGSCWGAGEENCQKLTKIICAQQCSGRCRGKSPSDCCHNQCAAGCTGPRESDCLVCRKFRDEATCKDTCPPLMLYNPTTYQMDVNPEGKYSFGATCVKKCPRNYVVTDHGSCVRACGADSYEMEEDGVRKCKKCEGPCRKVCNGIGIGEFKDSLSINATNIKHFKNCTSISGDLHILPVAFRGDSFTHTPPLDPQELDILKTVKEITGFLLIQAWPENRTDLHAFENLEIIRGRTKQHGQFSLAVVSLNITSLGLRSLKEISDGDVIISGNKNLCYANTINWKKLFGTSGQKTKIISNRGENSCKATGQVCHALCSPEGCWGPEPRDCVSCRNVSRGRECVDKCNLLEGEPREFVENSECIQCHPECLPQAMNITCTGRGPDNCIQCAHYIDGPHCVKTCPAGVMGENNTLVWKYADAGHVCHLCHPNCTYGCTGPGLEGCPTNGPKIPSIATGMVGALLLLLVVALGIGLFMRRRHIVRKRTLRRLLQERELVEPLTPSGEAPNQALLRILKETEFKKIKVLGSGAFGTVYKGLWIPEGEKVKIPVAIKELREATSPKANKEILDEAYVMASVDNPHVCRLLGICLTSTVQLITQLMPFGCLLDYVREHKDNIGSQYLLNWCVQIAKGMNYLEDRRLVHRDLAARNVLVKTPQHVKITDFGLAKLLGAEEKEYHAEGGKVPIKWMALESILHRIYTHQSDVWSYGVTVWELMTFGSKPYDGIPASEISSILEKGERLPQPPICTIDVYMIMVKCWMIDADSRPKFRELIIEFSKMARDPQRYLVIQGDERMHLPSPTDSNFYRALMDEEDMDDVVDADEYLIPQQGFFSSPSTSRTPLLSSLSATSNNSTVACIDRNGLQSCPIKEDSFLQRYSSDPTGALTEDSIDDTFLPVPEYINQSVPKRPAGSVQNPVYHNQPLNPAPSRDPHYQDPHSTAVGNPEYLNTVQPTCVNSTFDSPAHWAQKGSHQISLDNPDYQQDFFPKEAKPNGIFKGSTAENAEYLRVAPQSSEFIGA
row,IC50 [µM],SMILES
1,1 to 10,Cc1cc(Nc2ncnc3sc4c(c23)CCN(C(=O)/C=C/CN2CC3CCC(C3)C2)C4)ccc1Oc1ccc2ncnn2c1 [Compound 20]
2,1 to 10,Cc1ccc(Oc2ccc(Nc3ncnc4sc5c(c34)CCN(C(=O)/C=C/CNC3CCC(C(=O)N(C)C)CC3)C5)cc2C)cn1 (centres unmarked) [Compound 71]
3,1 to 10,"Cc1cc(Nc2ncnc3sc4c(c23)CCN(C(=O)/C=C/CN(C)C)C4)ccc1Oc1ccc2cn[nH]c2c1 [Compound 23, (E)-1-(4-((4-((1H-indazol-6-yl)oxy)-3-methylphenyl)amino)-5,8-dihydropyrido[4′,3′:4,5]thieno[2,3-d]pyrimidin-7(6H)-yl)-4-(dimethylamino)but-2-en-1-one]"
4,1 to 10,Cc1ccc(Oc2ccc(Nc3ncnc4sc5c(c34)CCN(C(=O)/C=C/CN3CCCC3C(N)=O)C5)cc2C)cn1 (centres unmarked) [Compound 41]
5,> 10,Cc1cc(Nc2ncnc3sc4c(c23)CCN(C(=O)/C=C/CN(C)C(C)(C)C)C4)ccc1Oc1ccc2ncnn2c1 [Compound 80]
6,1 to 10,Cc1ccc(Oc2ccc(Nc3ncnc4sc5c(c34)CCN(C(=O)/C=C/CNC3CC3)C5)cc2C)cn1 [Compound 40]
7,> 10,CON(C)C/C=C/C(=O)N1CCc2c(sc3ncnc(Nc4ccc(Oc5ccc(C)nc5)c(C)c4)c23)C1 [Compound 56]
8,> 10,O=C(/C=C/CN1CC2C(CO)C2C1)N1CCc2c(sc3ncnc(Nc4ccc(Oc5ccc6ncnn6c5)c(Cl)c4)c23)C1 (centres unmarked) [Compound 92]
9,> 10,"C=C(CN1CCc2c(sc3ncnc(Nc4ccc(Oc5ccc(C)nc5)c(C)c4)c23)C1)C(=O)OCC [Compound 86, Ethyl 2-((4-((3-methyl-4-((6-methylpyridin-3-yl)oxy)phenyl)amino)-5,8-dihydropyrido[4′,3′:4,5]thieno[2,3-d]pyrimidin-7(6H)-yl)methyl)acrylate]"
10,1 to 10,"Cc1cc(Nc2ncnc3sc4c(c23)CCN(C(=O)/C=C/CN(C)C)C4)ccc1Oc1cccc(B(O)O)c1 [Compound 64, (E)-(3-(4-((7-(4-(dimethylamino)but-2-enoyl)-5,6,7,8-tetrahydropyrido[4′,3′:4,5]thieno[2,3-d]pyrimidin-4-yl)amino)-2-methylphenoxy)phenyl)boronic acid]"
11,1 to 10,Cc1ccc(Oc2ccc(Nc3ncnc4sc5c(c34)CCN(C(=O)/C=C/CN3CC4CC4C3)C5)cc2C)cn1 (centres unmarked) [Compound 76]
12,> 10,"Cc1ccc(Oc2ccc(Nc3ncnc4[nH]c5c(c34)CN(C(=O)/C=C/CN(C)C)CC5)cc2C)cn1 [Compound 97, (E)-4-(dimethylamino)-1-(4-((3-methyl-4-((6-methylpyridin-3-yl)oxy)phenyl)amino)-5,7,8,9-tetrahydro-6H-pyrido[3′,4′:4,5]pyrrolo[2,3-d]pyrimidin-6-yl)but-2-en-1-one]"
13,> 10,"Cc1cc(Nc2ncnc3sc4c(c23)CCN(C(=O)/C=C/CN(C)C)C4)ccc1Oc1ccc2nonc2c1 [Compound 104, (E)-1-(4-((4-(Benzo[c][1,2,5]oxadiazol-5-yloxy)-3-methylphenyl)amino)-5,6-dihydropyrido[4′,3′:4,5]thieno[2,3-d]pyrimidin-7(8H)-yl)-4-(dimethylamino)but-2-en-1-one]"
14,> 10,Cc1ccc(Oc2ccc(Nc3ncnc4sc5c(c34)CCN(C(=O)/C=C/CNCCS(C)(=O)=O)C5)cc2C)cn1 [Compound 45]
15,> 10,"C=CC(=O)N1CCc2[nH]c3ncnc(Nc4ccc(Oc5ccc6ncnn6c5)c(C)c4)c3c2C1 [Compound 102, 1-(4-((4-([1,2,4]triazolo[1,5-a]pyridin-6-yloxy)-3-methylphenyl)amino)-5,7,8,9-tetrahydro-6H-pyrido[3′,4′:4,5]pyrrolo[2,3-d]pyrimidin-6-yl)prop-2-en-1-one]"
16,> 10,"Cc1cc(Nc2ncnc3sc4c(c23)CN(C(=O)/C=C/CN(C)C)CC4)ccc1Oc1ccc2ncnn2c1 [Compound 103, (E)-1-(4-((4-([1,2,4]triazolo[1,5-a]pyridin-6-yloxy)-3-methylphenyl)amino)-7,8-dihydropyrido[3′,4′:4,5]thieno[2,3-d]pyrimidin-6(5H)-yl)-4-(dimethylamino)but-2-en-1-one]"
17,> 10,"Cc1ncc(Oc2ccc(Nc3ncnc4sc5c(c34)CCN(C(=O)/C=C/CN(C)C)C5)cc2C)cn1 [Compound 21, (E)-4-(dimethylamino)-1-(4-((3-methyl-4-((2-methylpyrimidin-5-yl)oxy)phenyl)amino)-5,8-dihydropyrido[4′,3′:4,5]thieno[2,3-d]pyrimidin-7(6H)-yl)but-2-en-1-one]"
18,> 10,"CCOC/C=C/C(=O)N1CCc2c(sc3ncnc(Nc4ccc(Oc5ccc(C)nc5)c(C)c4)c23)C1 [Compound 96, (E)-4-ethoxy-1-(4-((3-methyl-4-((6-methylpyridin-3-yl)oxy)phenyl)amino)-5,8-dihydropyrido[4′,3′:4,5]thieno[2,3-d]pyrimidin-7(6H)-yl)but-2-en-1-one]"
19,1 to 10,Cc1ccc(Oc2ccc(Nc3ncnc4sc5c(c34)CCN(C(=O)/C=C/CN[C@H]3CC[C@H](OC(F)F)CC3)C5)cc2C)cn1 [Compound 69]
20,> 10,Cc1ccc(Oc2ccc(Nc3ncnc4sc5c(c34)CCN(C(=O)/C=C/CN3CCn4cc(C(F)(F)F)nc4C3)C5)cc2C)cn1 [Compound 61]
21,1 to 10,Cc1ccc(Oc2ccc(Nc3ncnc4sc5c(c34)CCN(C(=O)/C=C/CN[C@@H](C)CO)C5)cc2C)cn1 [Compound 75]
22,> 10,Cc1ccc(Oc2ccc(Nc3ncnc4sc5c(c34)CCN(C(=O)/C=C/CN3CCC(n4ccnc4)CC3)C5)cc2C)cn1 [Compound 62]

row,IC50 [µM],SMILES
1,> 10,Cc1ccc(Oc2ccc(Nc3ncnc4sc5c(c34)CCN(C(=O)/C=C/CNC3CCC3)C5)cc2C)cn1 [Compound 54]
2,> 10,"C=CC(=O)N1CCc2c(sc3ncnc(Nc4ccc(Oc5ccc6ncnn6c5)c(Cl)c4)c23)C1 [Compound 4, 1-(4-((4-([1,2,4]triazolo[1,5-a]pyridin-6-yloxy)-3-chlorophenyl)amino)-5,8-dihydropyrido[4′,3′:4,5]thieno[2,3-d]pyrimidin-7(6H)-yl)prop-2-en-1-one]"
3,1 to 10,O=C(/C=C/CN1CC2CC1CO2)N1CCc2c(sc3ncnc(Nc4ccc(Oc5ccc6ncnn6c5)c(Cl)c4)c23)C1 (centres unmarked) [Compound 87]
4,> 10,COCCN1CCN(C/C=C/C(=O)N2CCc3c(sc4ncnc(Nc5ccc(Oc6ccc(C)nc6)c(C)c5)c34)C2)CC1 [Compound 59]
5,> 10,O=C(/C=C/CN1CC2CCC(C2)C1)N1CCc2c(sc3ncnc(Nc4ccc(Oc5ccc6ncnn6c5)c(Cl)c4)c23)C1 [Compound 88]
6,> 10,Cc1ccc(Oc2ccc(Nc3ncnc4sc5c(c34)CCN(C(=O)/C=C/CN3CC=CCC3)C5)cc2C)cn1 [Compound 55]
7,> 10,Cc1ccc(Oc2ccc(Nc3ncnc4sc5c(c34)CCN(C(=O)/C=C/CN3CC(O)CO3)C5)cc2C)cn1 (centres unmarked) [Compound 43]
8,> 10,CC(=O)N1CCN(C/C=C/C(=O)N2CCc3c(sc4ncnc(Nc5ccc(Oc6ccc(C)nc6)c(C)c5)c34)C2)CC1 [Compound 51]
9,> 10,Cc1ccc(Oc2ccc(Nc3ncnc4sc5c(c34)CCN(C(=O)/C=C/CN3CC4(C3)CS(=O)(=O)C4)C5)cc2C)cn1 [Compound 57]
10,> 10,Cc1cc(Nc2ncnc3sc4c(c23)CCN(C(=O)/C=C/CN2CC3C(CO)C3C2)C4)ccc1Oc1ccc2ncnn2c1 (centres unmarked) [Compound 81]
11,1 to 10,Cc1ccc(Oc2ccc(Nc3ncnc4sc5c(c34)CCN(C(=O)/C=C/CNC34CCC(C#N)(CC3)CC4)C5)cc2C)cn1 [Compound 72]
12,1 to 10,Cc1ccc(Oc2ccc(Nc3ncnc4sc5c(c34)CCN(C(=O)/C=C/CNC3CCOC3)C5)cc2C)cn1 (centres unmarked) [Compound 47]
13,> 10,Cc1ccc(Oc2ccc(Nc3ncnc4sc5c(c34)CCN(C(=O)/C=C/CNC3COC3)C5)cc2C)cn1 [Compound 38]
14,> 10,Cc1ccc(Oc2ccc(Nc3ncnc4sc5c(c34)CCN(C(=O)/C=C/CN3CCN4C(=O)CCC4C3)C5)cc2C)cn1 (centres unmarked) [Compound 58]
15,1 to 10,Cc1ccc(Oc2ccc(Nc3ncnc4sc5c(c34)CCN(C(=O)/C=C/CNCc3cc(C)n[nH]3)C5)cc2C)cn1 [Compound 49]
16,1 to 10,Cc1ccc(Oc2ccc(Nc3ncnc4sc5c(c34)CCN(C(=O)/C=C/CN3CCC(O)C3)C5)cc2C)cn1 (centres unmarked) [Compound 74]
17,1 to 10,Cc1ccc(Oc2ccc(Nc3ncnc4sc5c(c34)CCN(C(=O)/C=C/CN[C@H]3CC[C@H](OCC(F)(F)F)CC3)C5)cc2C)cn1 [Compound 70]
18,1 to 10,Cc1ccc(Oc2ccc(Nc3ncnc4sc5c(c34)CCN(C(=O)/C=C/CNCCO)C5)cc2C)cn1 [Compound 65]
19,> 10,Cc1cc(Nc2ncnc3sc4c(c23)CCN(C(=O)/C=C/CN2CC3CC2CO3)C4)ccc1Oc1ccc2ncnn2c1 (centres unmarked) [Compound 77]
20,> 10,"Cc1ccc(Oc2ccc(Nc3ncnc4sc5c(c34)CCCN(C(=O)/C=C/CN(C)C)C5)cc2C)cn1 [Compound 101, (E)-4-(Dimethylamino)-1-(4-((3-methyl-4-((6-methylpyridin-3-yl)oxy)phenyl)amino)-6,7-dihydro-5H-pyrimido[5′,4′:4,5]thieno[2,3-c]azepin-8(9H)-yl)but-2-en-1-one]"
21,> 10,Cc1ccc(Oc2ccc(Nc3ncnc4sc5c(c34)CCN(C(=O)/C=C/CN3CC4CC3CO4)C5)cc2C)cn1 (centres unmarked) [Compound 26]
22,> 10,"C=CC(=O)N1CCc2[nH]c3ncnc(Nc4ccc(Oc5ccc(C)nc5)c(C)c4)c3c2C1 [Compound 94, 1-(4-((3-methyl-4-((6-methylpyridin-3-yl)oxy)phenyl)amino)-7,8-dihydro-5H-pyrido[3′,4′:4,5]pyrrolo[2,3-d]pyrimidin-6(9H)-yl)prop-2-en-1-one]"

row,SMILES,IC50 [µM]
1,O=C(/C=C/CN1CC2CC(C2)C1)N1CCc2c(sc3ncnc(Nc4ccc(Oc5ccc6ncnn6c5)c(Cl)c4)c23)C1 [Compound 85],1 to 10
2,Cc1ccc(Oc2ccc(Nc3ncnc4sc5c(c34)CCN(C(=O)/C=C/CN3C4CCC3CC4)C5)cc2C)cn1 [Compound 44],1 to 10
3,Cc1cc(Nc2ncnc3sc4c(c23)CCN(C(=O)/C=C/CN2CC3CC(C3)C2)C4)ccc1Oc1ccc2ncnn2c1 [Compound 82],> 10

# — patent publication US20240391931A1 (Bristol-Myers Squibb Company, priority 2021, published 2024)
